Laboratory results from the supplement of paper PMC13207355.

What was measured:
Conditions in all cases: exposure time: 72 h
[1] = test system: E34 (patient-derived glioblastoma stem cells of proneural subtype); test: surviving fraction (nuclei count normalised to DMSO); higher = more cells surviving (less toxic)
[2] = test system: E31 (patient-derived glioblastoma stem cells of proneural subtype); test: as above
[3] = test system: FT3469 (normal neural stem cell line); test: as above
[4] = test system: E28 (patient-derived glioblastoma stem cells of classical subtype); test: as above
[5] = test system: E13 (patient-derived glioblastoma stem cells of classical subtype); test: as above
[6] = test system: E21 (patient-derived glioblastoma stem cells of mesenchymal subtype); test: as above
[7] = test system: E57 (patient-derived glioblastoma stem cells of mesenchymal subtype); test: as above
[8] = test system: E34; test: phenotypic distance (Euclidean, principal components) from DMSO controls (arbitrary units); higher = stronger morphological change
[9] = test system: E31; test: as above
[10] = test system: FT3469; test: as above
[11] = test system: E28; test: as above
[12] = test system: E13; test: as above
[13] = test system: E21; test: as above
[14] = test system: E57; test: as above
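For phenotypic distance (Euclidean, principal components) from DMSO controls in this document: cell Painting imaging in 384-well plates, CellProfiler features reduced to at least 20 principal components, Euclidean distance versus same-plate DMSO vehicle wells (0.1% v/v), median over six images per well.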
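For surviving fraction (nuclei count normalised to DMSO) in this document: nuclei counted by high-content imaging of Hoechst-stained cells in laminin-coated 384-well plates, relative to 0.1% DMSO vehicle wells, with staurosporine as cell-death control.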

CC(=O)CC(c1ccc([N+](=O)[O-])cc1)c1c(O)c2ccccc2oc1=O (stereo not drawn) [Acenocoumarol]
Conditions	phenotypic distance	surviving fraction
[1], 4.1 nM	–	0.771
[1], 12.3 nM	–	1.01
[1], 37 nM	–	1.04
[1], 111.1 nM	–	1.06
[1], 333.3 nM	–	0.935
[1], 1000 nM	–	0.918
[1], 3000 nM	–	0.892
[2], 4.1 nM	–	0.989
[2], 12.3 nM	–	0.923
[2], 37 nM	–	0.848
[2], 111.1 nM	–	0.934
[2], 333.3 nM	–	1.03
[2], 1000 nM	–	0.955
[2], 3000 nM	–	0.809
[3], 4.1 nM	–	1.01
[3], 12.3 nM	–	1.07
[3], 37 nM	–	0.881
[3], 111.1 nM	–	1.12
[3], 333.3 nM	–	0.823
[3], 1000 nM	–	0.849
[3], 3000 nM	–	0.771
[4], 4.1 nM	–	0.905
[4], 12.3 nM	–	0.999
[4], 37 nM	–	0.918
[4], 111.1 nM	–	0.967
[4], 333.3 nM	–	1.06
[4], 1000 nM	–	0.92
[4], 3000 nM	–	0.901
[5], 4.1 nM	–	0.91
[5], 12.3 nM	–	1.04
[5], 37 nM	–	1.05
[5], 111.1 nM	–	1.03
[5], 333.3 nM	–	0.873
[5], 1000 nM	–	0.931
[5], 3000 nM	–	0.767
[6], 4.1 nM	–	0.926
[6], 12.3 nM	–	1.09
[6], 37 nM	–	0.897
[6], 111.1 nM	–	0.931
[6], 333.3 nM	–	0.865
[6], 1000 nM	–	0.954
[6], 3000 nM	–	0.852
[7], 4.1 nM	–	1.08
[7], 12.3 nM	–	1.09
[7], 37 nM	–	1.02
[7], 111.1 nM	–	1.07
[7], 333.3 nM	–	1.03
[7], 1000 nM	–	0.983
[7], 3000 nM	–	1.02
[8], 4.1 nM	1.2	–
[8], 12.3 nM	0.513	–
[8], 37 nM	1.59	–
[8], 111.1 nM	0.677	–
[8], 333.3 nM	0.562	–
[8], 1000 nM	0.954	–
[8], 3000 nM	0.563	–
[9], 4.1 nM	0.829	–
[9], 12.3 nM	0.483	–
[9], 37 nM	1.07	–
[9], 111.1 nM	0.701	–
[9], 333.3 nM	0.894	–
[9], 1000 nM	0.819	–
[9], 3000 nM	1.06	–
[10], 4.1 nM	1.4	–
[10], 12.3 nM	0.712	–
[10], 37 nM	1.02	–
[10], 111.1 nM	0.751	–
[10], 333.3 nM	0.862	–
[10], 1000 nM	0.691	–
[10], 3000 nM	0.764	–
[11], 4.1 nM	1.02	–
[11], 12.3 nM	0.39	–
[11], 37 nM	0.547	–
[11], 111.1 nM	0.548	–
[11], 333.3 nM	0.562	–
[11], 1000 nM	1.03	–
[11], 3000 nM	0.857	–
[12], 4.1 nM	0.426	–
[12], 12.3 nM	0.665	–
[12], 37 nM	2.8	–
[12], 111.1 nM	0.663	–
[12], 333.3 nM	0.594	–
[12], 1000 nM	0.586	–
[12], 3000 nM	0.934	–
[13], 4.1 nM	1.01	–
[13], 12.3 nM	0.655	–
[13], 37 nM	0.963	–
[13], 111.1 nM	0.772	–
[13], 333.3 nM	0.946	–
[13], 1000 nM	0.684	–
[13], 3000 nM	1.11	–
[14], 4.1 nM	0.94	–
[14], 12.3 nM	1.02	–
[14], 37 nM	1.11	–
[14], 111.1 nM	1.36	–
[14], 333.3 nM	0.492	–
[14], 1000 nM	0.718	–
[14], 3000 nM	0.744	–
